Measurements as given in patent US20150125889A1, “IN VITRO DETECTION OF MICROORGANISMS WITH AZOREDUCTASE ACTIVITY” (BIOMÉRIEUX, priority 2012, published 2015).

Columns and labels:
Test in all cases: Reduction of azo substrates over 24 hours at 35° C., microtitration plate (Example 1)
Type in all cases: cell-based
[1] = system: Candida albicans; set-up: key to RED (substrate reduced or not): RED indicates whether the substrate is reduced (Y) or not (N); RED indicates whether the substrate is reduced (Y) or not (N); key to Co (growth, absorbance at 660 nm) / Decol (substrate decolourized, decrease in absorbance) / Fluo (fluorescence multiplied by 2 relative to substrate-free control): The symbol “+” means good growth/decolourization/significant increase in fluorescence; The symbol “+/−” means difficult growth; The symbol “−” means that there is no growth/decolourization/significant increase in fluorescence; conditions: substrate 35 mg/l
Description: (§1) Reduction of the “azo” function of the substrates listed in Table I by the species listed in Table II, each species being represented by a strain, is tested in a microtitration plate.
(§2) The reaction medium consists of: • Trypcase soya broth • Substrate 35 mg/l • 0.5 MacFarland inoculum
(§3) The reduction of the substrate and the growth of the microorganisms are monitored using an Infinite® M200 Tecan microplate reader at 35° C. over 24 hours.
(§4) The growth is monitored by the absorbance at 660 nm and the reduction of the substrates by absorbance and fluorescence at the specific wavelengths indicated in Table III.
(§5) The substrate is considered as reduced by the microorganisms when the substrate is decolourized (monitored by the decrease in absorbance) (Decol) and/or when the fluorescence of the substrate is multiplied by 2 relative to the base fluorescence of a substrate-free control (Fluo). The growth is indicated by Co. The symbol “+” means good growth/decolourization/significant increase in fluorescence. The symbol “+/−” means difficult growth. The symbol “−” means that there is no growth/decolourization/significant increase in fluorescence. RED indicates whether the substrate is reduced (Y) or not (N).

[2] = system: Cronobacter muytjensii; set-up: key to RED (substrate reduced or not): RED indicates whether the substrate is reduced (Y) or not (N); RED indicates whether the substrate is reduced (Y) or not (N); key to Co (growth, absorbance at 660 nm) / Decol (substrate decolourized, decrease in absorbance) / Fluo (fluorescence multiplied by 2 relative to substrate-free control): The symbol “+” means good growth/decolourization/significant increase in fluorescence; The symbol “+/−” means difficult growth; The symbol “−” means that there is no growth/decolourization/significant increase in fluorescence; conditions: E. muytjensii, substrate 35 mg/l
Description: as §1, §2, §3, §4, §5

[3] = system: Escherichia coli; set-up: key to RED (substrate reduced or not): RED indicates whether the substrate is reduced (Y) or not (N); RED indicates whether the substrate is reduced (Y) or not (N); key to Co (growth, absorbance at 660 nm) / Decol (substrate decolourized, decrease in absorbance) / Fluo (fluorescence multiplied by 2 relative to substrate-free control): The symbol “+” means good growth/decolourization/significant increase in fluorescence; The symbol “+/−” means difficult growth; The symbol “−” means that there is no growth/decolourization/significant increase in fluorescence; conditions: E. coli, substrate 35 mg/l
Description: as §1, §2, §3, §4, §5

[4] = system: Geotrichum candidum; set-up: key to RED (substrate reduced or not): RED indicates whether the substrate is reduced (Y) or not (N); RED indicates whether the substrate is reduced (Y) or not (N); key to Co (growth, absorbance at 660 nm) / Decol (substrate decolourized, decrease in absorbance) / Fluo (fluorescence multiplied by 2 relative to substrate-free control): The symbol “+” means good growth/decolourization/significant increase in fluorescence; The symbol “+/−” means difficult growth; The symbol “−” means that there is no growth/decolourization/significant increase in fluorescence; conditions: G. candidum, substrate 35 mg/l
Description: as §1, §2, §3, §4, §5

[5] = system: Kocuria rosea; set-up: key to RED (substrate reduced or not): RED indicates whether the substrate is reduced (Y) or not (N); RED indicates whether the substrate is reduced (Y) or not (N); key to Co (growth, absorbance at 660 nm) / Decol (substrate decolourized, decrease in absorbance) / Fluo (fluorescence multiplied by 2 relative to substrate-free control): The symbol “+” means good growth/decolourization/significant increase in fluorescence; The symbol “+/−” means difficult growth; The symbol “−” means that there is no growth/decolourization/significant increase in fluorescence; conditions: K. rosea, substrate 35 mg/l
Description: as §1, §2, §3, §4, §5

[6] = system: Pseudomonas aeruginosa; set-up: key to RED (substrate reduced or not): RED indicates whether the substrate is reduced (Y) or not (N); RED indicates whether the substrate is reduced (Y) or not (N); key to Co (growth, absorbance at 660 nm) / Decol (substrate decolourized, decrease in absorbance) / Fluo (fluorescence multiplied by 2 relative to substrate-free control): The symbol “+” means good growth/decolourization/significant increase in fluorescence; The symbol “+/−” means difficult growth; The symbol “−” means that there is no growth/decolourization/significant increase in fluorescence; conditions: P. aeruginosa, substrate 35 mg/l
Description: as §1, §2, §3, §4, §5

[7] = system: Staphylococcus aureus; set-up: key to RED (substrate reduced or not): RED indicates whether the substrate is reduced (Y) or not (N); RED indicates whether the substrate is reduced (Y) or not (N); key to Co (growth, absorbance at 660 nm) / Decol (substrate decolourized, decrease in absorbance) / Fluo (fluorescence multiplied by 2 relative to substrate-free control): The symbol “+” means good growth/decolourization/significant increase in fluorescence; The symbol “+/−” means difficult growth; The symbol “−” means that there is no growth/decolourization/significant increase in fluorescence; conditions: S. aureus, substrate 35 mg/l
Description: as §1, §2, §3, §4, §5

[8] = system: Staphylococcus epidermidis; set-up: key to RED (substrate reduced or not): RED indicates whether the substrate is reduced (Y) or not (N); RED indicates whether the substrate is reduced (Y) or not (N); key to Co (growth, absorbance at 660 nm) / Decol (substrate decolourized, decrease in absorbance) / Fluo (fluorescence multiplied by 2 relative to substrate-free control): The symbol “+” means good growth/decolourization/significant increase in fluorescence; The symbol “+/−” means difficult growth; The symbol “−” means that there is no growth/decolourization/significant increase in fluorescence; conditions: S. epidermidis, substrate 35 mg/l
Description: as §1, §2, §3, §4, §5

[9] = system: Acinetobacter baumanii; set-up: key to RED (substrate reduced or not): RED indicates whether the substrate is reduced (Y) or not (N); RED indicates whether the substrate is reduced (Y) or not (N); key to Decol (substrate decolourized, decrease in absorbance) / Fluo (fluorescence multiplied by 2 relative to substrate-free control) / Co (growth, absorbance at 660 nm): The symbol “+” means good growth/decolourization/significant increase in fluorescence; The symbol “+/−” means difficult growth; The symbol “−” means that there is no growth/decolourization/significant increase in fluorescence; conditions: A. baumannii, substrate 35 mg/l
Description: as §1, §2, §3, §4, §5

[10] = system: Enterococcus faecalis; set-up: key to RED (substrate reduced or not): RED indicates whether the substrate is reduced (Y) or not (N); RED indicates whether the substrate is reduced (Y) or not (N); key to Decol (substrate decolourized, decrease in absorbance) / Fluo (fluorescence multiplied by 2 relative to substrate-free control) / Co (growth, absorbance at 660 nm): The symbol “+” means good growth/decolourization/significant increase in fluorescence; The symbol “+/−” means difficult growth; The symbol “−” means that there is no growth/decolourization/significant increase in fluorescence; conditions: E. faecalis, substrate 35 mg/l
Description: as §1, §2, §3, §4, §5

| Compound | Co (growth, absorbance at 660 nm) [1] | Decol (substrate decolourized, decrease in absorbance) [1] | Fluo (fluorescence multiplied by 2 relative to substrate-free control) [1] | RED (substrate reduced or not) [1] | Co (growth, absorbance at 660 nm) [2] | Decol (substrate decolourized, decrease in absorbance) [2] | Fluo (fluorescence multiplied by 2 relative to substrate-free control) [2] | RED (substrate reduced or not) [2] | Co (growth, absorbance at 660 nm) [3] | Decol (substrate decolourized, decrease in absorbance) [3] | Fluo (fluorescence multiplied by 2 relative to substrate-free control) [3] | RED (substrate reduced or not) [3] | Co (growth, absorbance at 660 nm) [4] | Decol (substrate decolourized, decrease in absorbance) [4] | Fluo (fluorescence multiplied by 2 relative to substrate-free control) [4] | RED (substrate reduced or not) [4] | Co (growth, absorbance at 660 nm) [5] | Decol (substrate decolourized, decrease in absorbance) [5] | Fluo (fluorescence multiplied by 2 relative to substrate-free control) [5] | Co (growth, absorbance at 660 nm) [6] | other results |
| --- | --- | --- | --- | --- | --- | --- | --- | --- | --- | --- | --- | --- | --- | --- | --- | --- | --- | --- | --- | --- | --- |
| O=C(O)c1ccccc1/N=N/c1cc(Br)c(O)c(Br)c1 [2-(4-hydroxy-3,5-dibromophenylazo)benzoic acid] | + | − | − | N | + | + | + | Y | + | − | + | Y | + | − | + | Y | − | − | − | + | Decol (substrate decolourized, decrease in absorbance) [6]: −; Fluo (fluorescence multiplied by 2 relative to substrate-free control) [6]: −; RED (substrate reduced or not) [6]: N; Co (growth, absorbance at 660 nm) [7]: +; Decol (substrate decolourized, decrease in absorbance) [7]: +; Fluo (fluorescence multiplied by 2 relative to substrate-free control) [7]: +; RED (substrate reduced or not) [7]: Y; Co (growth, absorbance at 660 nm) [8]: +; Decol (substrate decolourized, decrease in absorbance) [8]: +/−; Fluo (fluorescence multiplied by 2 relative to substrate-free control) [8]: +; RED (substrate reduced or not) [8]: Y; Co (growth, absorbance at 660 nm) [9]: +; Decol (substrate decolourized, decrease in absorbance) [9]: −; Fluo (fluorescence multiplied by 2 relative to substrate-free control) [9]: +; RED (substrate reduced or not) [9]: Y; Co (growth, absorbance at 660 nm) [10]: +; Decol (substrate decolourized, decrease in absorbance) [10]: +; Fluo (fluorescence multiplied by 2 relative to substrate-free control) [10]: +; RED (substrate reduced or not) [10]: Y |
| O=C(O)c1ccccc1/N=N/c1cc(Cl)c(O)c(Cl)c1 [2-(4-Hydroxy-3,5-dichlorophenylazo)benzoic acid] | + | − | − | N | + | + | + | Y | + | + | + | Y | + | + | + | Y | − | − | − | + | Decol (substrate decolourized, decrease in absorbance) [6]: −; Fluo (fluorescence multiplied by 2 relative to substrate-free control) [6]: +; RED (substrate reduced or not) [6]: Y; Co (growth, absorbance at 660 nm) [7]: +; Decol (substrate decolourized, decrease in absorbance) [7]: +; Fluo (fluorescence multiplied by 2 relative to substrate-free control) [7]: +; RED (substrate reduced or not) [7]: Y; Co (growth, absorbance at 660 nm) [8]: +; Decol (substrate decolourized, decrease in absorbance) [8]: +; Fluo (fluorescence multiplied by 2 relative to substrate-free control) [8]: +; RED (substrate reduced or not) [8]: Y; Co (growth, absorbance at 660 nm) [9]: +; Decol (substrate decolourized, decrease in absorbance) [9]: +; Fluo (fluorescence multiplied by 2 relative to substrate-free control) [9]: +; RED (substrate reduced or not) [9]: Y; Co (growth, absorbance at 660 nm) [10]: +; Decol (substrate decolourized, decrease in absorbance) [10]: +; Fluo (fluorescence multiplied by 2 relative to substrate-free control) [10]: +; RED (substrate reduced or not) [10]: Y |
